Active and inactive are the calls of the source.
Experiments:
[1] = molecular target: Small ubiquitin-related modifier 2 (Homo sapiens, UniProt P61956); assay: SUMO2 binding disruption by SUMO1 hits – biochemical, FRET, human SUMO2, uHTS hits, selectivity assay for SUMO1 interaction inhibitor project, dose response (AID 624384); assay type: functional; conditions: read-out: IC50_Mean
[2] = molecular target: ATP-dependent molecular chaperone HSP82 (Candida albicans (strain WO-1) (Yeast), UniProt C4YTQ8); assay: steroid-induced GRE reporter decrease in yeast – S. cerevisiae, luminescence, Hsp90 inhibitor project, dose response (AID 2400); assay type: functional, cell-based;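 also: beta-galactosidase luminescence from glucocorticoid response element reporter as proxy for Hsp90 function; inhibitor potency where signal loss means Hsp90 inhibition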
[3] = microbe, parasite or virus in culture; assay type: functional; conditions: Mycobacterium tuberculosis
[4] = molecular target: Dual specificity protein phosphatase 3 (Homo sapiens, UniProt P51452); assay: VHR1 phosphatase inhibitors, biochemical (AID 1878)
[5] = molecular target: Peroxisome proliferator-activated receptor gamma/Nuclear receptor corepressor 2 (Homo sapiens, UniProt P37231+Q9Y618); assay type: functional
[6] = molecular target: Protein-arginine deiminase type-4 (Homo sapiens, UniProt Q9UM07); assay: IC50 against protein arginine deiminase 4 – biochemical, fluorescence readout, dose response (AID 492970)
[7] = molecular target: T1, Apoptotic protease-activating factor 1 (Homo sapiens, UniProt O14727); assay type: functional
T1 sequence (O14727 whole entry): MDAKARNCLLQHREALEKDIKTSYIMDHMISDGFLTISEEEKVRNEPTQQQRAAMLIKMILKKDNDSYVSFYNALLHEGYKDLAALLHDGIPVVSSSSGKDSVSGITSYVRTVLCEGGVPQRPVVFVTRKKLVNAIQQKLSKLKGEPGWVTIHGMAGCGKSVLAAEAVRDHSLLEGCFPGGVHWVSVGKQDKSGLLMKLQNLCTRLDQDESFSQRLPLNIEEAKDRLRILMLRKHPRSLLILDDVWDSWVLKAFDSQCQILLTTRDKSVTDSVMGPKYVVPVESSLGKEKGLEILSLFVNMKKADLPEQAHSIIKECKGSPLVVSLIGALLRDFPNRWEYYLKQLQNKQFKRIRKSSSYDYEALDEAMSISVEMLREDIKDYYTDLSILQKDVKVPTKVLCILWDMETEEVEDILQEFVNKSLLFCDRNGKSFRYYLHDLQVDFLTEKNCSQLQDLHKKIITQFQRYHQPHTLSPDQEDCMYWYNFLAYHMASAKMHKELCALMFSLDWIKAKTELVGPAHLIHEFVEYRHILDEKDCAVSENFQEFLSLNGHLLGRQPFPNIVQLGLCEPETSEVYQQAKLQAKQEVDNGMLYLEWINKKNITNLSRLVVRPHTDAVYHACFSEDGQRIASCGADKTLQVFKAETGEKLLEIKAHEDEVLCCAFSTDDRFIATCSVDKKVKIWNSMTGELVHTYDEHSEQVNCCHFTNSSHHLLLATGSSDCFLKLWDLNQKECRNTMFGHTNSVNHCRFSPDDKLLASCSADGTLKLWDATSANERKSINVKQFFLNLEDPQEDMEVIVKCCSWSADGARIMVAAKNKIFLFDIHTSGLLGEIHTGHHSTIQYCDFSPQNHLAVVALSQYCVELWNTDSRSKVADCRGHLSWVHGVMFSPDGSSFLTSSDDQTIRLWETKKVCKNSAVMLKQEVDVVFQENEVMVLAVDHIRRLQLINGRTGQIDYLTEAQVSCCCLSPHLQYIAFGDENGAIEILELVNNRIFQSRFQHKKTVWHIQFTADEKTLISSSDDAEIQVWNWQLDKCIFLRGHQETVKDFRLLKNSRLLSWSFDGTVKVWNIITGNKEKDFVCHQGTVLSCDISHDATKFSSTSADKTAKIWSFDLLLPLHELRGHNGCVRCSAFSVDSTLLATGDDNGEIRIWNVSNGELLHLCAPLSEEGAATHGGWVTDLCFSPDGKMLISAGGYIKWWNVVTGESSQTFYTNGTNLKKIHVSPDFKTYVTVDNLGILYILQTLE

[8] = reduction of Shn3 3'UTR-driven luciferase in osteoblasts – cell-based, Clone20 osteoblasts, firefly luciferase, cherry-picked, dose response (AID 624132); assay type: functional;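 also: firefly luciferase luminescence from reporter carrying the Shn3 3'UTR in osteoblasts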
[9] = molecular target: T2, DNA repair and recombination protein RAD54-like (Homo sapiens, UniProt Q92698); assay: RAD54 Holliday junction migration blockers – biochemical, fluorescence, cherry-picked samples, dose series, confirmation (AID 651657); assay type: functional
T2 sequence (Q92698 whole entry): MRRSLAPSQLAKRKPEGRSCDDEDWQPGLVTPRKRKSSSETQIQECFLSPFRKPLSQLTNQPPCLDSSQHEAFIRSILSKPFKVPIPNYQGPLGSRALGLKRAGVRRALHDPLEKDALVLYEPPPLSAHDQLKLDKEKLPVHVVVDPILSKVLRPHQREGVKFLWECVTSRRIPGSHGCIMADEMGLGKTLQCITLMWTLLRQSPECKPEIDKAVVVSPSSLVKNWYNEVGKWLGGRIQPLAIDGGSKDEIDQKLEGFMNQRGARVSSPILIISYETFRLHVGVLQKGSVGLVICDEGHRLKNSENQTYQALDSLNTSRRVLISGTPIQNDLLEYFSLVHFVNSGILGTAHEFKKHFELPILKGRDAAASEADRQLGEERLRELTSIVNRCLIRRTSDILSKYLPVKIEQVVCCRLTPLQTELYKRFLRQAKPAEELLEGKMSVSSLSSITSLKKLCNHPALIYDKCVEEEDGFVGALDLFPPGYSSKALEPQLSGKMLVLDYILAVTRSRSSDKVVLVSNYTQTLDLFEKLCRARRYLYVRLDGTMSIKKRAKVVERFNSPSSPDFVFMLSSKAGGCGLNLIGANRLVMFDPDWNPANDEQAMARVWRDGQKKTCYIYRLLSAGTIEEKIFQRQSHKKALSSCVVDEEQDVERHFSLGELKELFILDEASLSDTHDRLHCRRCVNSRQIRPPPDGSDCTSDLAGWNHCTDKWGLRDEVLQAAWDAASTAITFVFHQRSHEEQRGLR

Galanin receptor type 3 = molecular target: T3, Galanin receptor type 3 (Homo sapiens, UniProt O60755); assay: Fluorescence-based cell-based primary high throughput dose response assay to identify antagonists of the Galanin Receptor 3 (GalR3).; assay type: functional
T3 sequence (O60755 whole entry): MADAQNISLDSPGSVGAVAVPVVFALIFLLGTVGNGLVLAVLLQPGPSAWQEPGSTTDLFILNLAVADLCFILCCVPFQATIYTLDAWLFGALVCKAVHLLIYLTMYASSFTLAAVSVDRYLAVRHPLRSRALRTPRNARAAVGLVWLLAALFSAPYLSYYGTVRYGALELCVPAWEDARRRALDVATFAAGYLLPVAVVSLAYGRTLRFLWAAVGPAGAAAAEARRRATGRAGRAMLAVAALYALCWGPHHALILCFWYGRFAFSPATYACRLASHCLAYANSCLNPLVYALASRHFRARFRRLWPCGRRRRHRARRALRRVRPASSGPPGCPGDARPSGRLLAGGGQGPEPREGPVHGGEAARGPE

[10] = blockers of HIV-1 ZM109 envelope-driven cell-cell fusion – HeLa effector, CEM target cells, luciferase, cherry-pick, dose response (AID 652058); assay type: functional, cell-based;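 also: luciferase signal from HIV-1 Env mediated cell-cell fusion of effector and target cells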

Small ubiquitin-related modifier 2, sequence (P61956 whole entry): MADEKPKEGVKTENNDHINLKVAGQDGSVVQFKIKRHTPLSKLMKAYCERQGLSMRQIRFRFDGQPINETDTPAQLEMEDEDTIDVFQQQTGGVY
Dual specificity protein phosphatase 3, sequence (P51452 whole entry): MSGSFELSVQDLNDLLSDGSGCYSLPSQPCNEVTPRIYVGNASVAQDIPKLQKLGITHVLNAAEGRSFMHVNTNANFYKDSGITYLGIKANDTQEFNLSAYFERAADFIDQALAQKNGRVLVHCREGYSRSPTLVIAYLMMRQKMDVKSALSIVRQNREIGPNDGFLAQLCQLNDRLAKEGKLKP
ATP-dependent molecular chaperone HSP82, sequence (C4YTQ8 whole entry): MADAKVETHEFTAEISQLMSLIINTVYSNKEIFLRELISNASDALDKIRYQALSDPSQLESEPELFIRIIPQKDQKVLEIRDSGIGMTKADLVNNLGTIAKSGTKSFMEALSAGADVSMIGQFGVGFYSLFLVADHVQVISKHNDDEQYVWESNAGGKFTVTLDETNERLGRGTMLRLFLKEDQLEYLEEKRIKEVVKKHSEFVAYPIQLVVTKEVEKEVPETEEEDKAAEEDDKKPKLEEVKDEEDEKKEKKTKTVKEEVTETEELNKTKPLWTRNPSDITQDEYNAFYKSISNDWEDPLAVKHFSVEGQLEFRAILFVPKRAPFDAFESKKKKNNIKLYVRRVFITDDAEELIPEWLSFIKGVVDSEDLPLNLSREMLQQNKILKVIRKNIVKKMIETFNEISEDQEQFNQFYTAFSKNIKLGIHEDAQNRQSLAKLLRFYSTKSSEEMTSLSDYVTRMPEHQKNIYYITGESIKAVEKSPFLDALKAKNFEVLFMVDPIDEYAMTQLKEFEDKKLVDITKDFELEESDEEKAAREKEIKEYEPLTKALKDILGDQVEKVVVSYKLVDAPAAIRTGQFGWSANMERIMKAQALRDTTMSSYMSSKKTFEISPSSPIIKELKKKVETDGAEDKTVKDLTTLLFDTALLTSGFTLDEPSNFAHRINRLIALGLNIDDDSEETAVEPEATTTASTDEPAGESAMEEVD
Protein-arginine deiminase type-4, sequence (Q9UM07 whole entry): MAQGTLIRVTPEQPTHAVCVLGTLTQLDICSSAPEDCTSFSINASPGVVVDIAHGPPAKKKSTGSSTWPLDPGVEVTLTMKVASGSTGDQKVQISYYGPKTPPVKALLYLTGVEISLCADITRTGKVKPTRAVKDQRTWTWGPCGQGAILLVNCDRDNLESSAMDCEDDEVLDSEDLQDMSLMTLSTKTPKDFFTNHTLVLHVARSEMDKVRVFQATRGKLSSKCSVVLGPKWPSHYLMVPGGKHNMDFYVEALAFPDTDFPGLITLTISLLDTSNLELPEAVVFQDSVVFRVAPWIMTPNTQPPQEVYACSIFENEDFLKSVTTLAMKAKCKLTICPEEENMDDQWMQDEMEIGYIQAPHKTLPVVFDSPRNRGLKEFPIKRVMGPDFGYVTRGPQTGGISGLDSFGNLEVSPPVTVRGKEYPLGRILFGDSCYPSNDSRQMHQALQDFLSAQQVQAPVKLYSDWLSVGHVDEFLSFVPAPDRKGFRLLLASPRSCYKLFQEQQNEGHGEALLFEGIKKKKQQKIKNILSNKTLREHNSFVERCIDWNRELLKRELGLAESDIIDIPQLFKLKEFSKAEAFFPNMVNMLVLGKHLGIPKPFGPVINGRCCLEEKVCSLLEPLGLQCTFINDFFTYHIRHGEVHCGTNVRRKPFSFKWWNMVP
Peroxisome proliferator-activated receptor gamma/Nuclear receptor corepressor 2, sequence (P37231 whole entry): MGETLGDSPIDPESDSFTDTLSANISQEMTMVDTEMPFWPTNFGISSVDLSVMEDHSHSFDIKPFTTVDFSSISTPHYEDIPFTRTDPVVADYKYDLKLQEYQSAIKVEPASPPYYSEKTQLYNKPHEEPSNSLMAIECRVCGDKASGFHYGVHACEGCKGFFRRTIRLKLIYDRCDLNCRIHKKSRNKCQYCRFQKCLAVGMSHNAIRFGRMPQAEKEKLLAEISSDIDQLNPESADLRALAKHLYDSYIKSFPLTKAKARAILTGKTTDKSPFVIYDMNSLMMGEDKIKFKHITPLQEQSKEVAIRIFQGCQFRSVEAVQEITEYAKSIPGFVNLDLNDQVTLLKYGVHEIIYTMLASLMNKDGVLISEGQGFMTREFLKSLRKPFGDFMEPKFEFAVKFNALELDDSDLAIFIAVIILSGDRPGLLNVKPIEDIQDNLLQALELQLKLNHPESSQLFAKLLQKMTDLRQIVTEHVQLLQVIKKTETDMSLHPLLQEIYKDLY
Peroxisome proliferator-activated receptor gamma/Nuclear receptor corepressor 2, sequence (Q9Y618 whole entry): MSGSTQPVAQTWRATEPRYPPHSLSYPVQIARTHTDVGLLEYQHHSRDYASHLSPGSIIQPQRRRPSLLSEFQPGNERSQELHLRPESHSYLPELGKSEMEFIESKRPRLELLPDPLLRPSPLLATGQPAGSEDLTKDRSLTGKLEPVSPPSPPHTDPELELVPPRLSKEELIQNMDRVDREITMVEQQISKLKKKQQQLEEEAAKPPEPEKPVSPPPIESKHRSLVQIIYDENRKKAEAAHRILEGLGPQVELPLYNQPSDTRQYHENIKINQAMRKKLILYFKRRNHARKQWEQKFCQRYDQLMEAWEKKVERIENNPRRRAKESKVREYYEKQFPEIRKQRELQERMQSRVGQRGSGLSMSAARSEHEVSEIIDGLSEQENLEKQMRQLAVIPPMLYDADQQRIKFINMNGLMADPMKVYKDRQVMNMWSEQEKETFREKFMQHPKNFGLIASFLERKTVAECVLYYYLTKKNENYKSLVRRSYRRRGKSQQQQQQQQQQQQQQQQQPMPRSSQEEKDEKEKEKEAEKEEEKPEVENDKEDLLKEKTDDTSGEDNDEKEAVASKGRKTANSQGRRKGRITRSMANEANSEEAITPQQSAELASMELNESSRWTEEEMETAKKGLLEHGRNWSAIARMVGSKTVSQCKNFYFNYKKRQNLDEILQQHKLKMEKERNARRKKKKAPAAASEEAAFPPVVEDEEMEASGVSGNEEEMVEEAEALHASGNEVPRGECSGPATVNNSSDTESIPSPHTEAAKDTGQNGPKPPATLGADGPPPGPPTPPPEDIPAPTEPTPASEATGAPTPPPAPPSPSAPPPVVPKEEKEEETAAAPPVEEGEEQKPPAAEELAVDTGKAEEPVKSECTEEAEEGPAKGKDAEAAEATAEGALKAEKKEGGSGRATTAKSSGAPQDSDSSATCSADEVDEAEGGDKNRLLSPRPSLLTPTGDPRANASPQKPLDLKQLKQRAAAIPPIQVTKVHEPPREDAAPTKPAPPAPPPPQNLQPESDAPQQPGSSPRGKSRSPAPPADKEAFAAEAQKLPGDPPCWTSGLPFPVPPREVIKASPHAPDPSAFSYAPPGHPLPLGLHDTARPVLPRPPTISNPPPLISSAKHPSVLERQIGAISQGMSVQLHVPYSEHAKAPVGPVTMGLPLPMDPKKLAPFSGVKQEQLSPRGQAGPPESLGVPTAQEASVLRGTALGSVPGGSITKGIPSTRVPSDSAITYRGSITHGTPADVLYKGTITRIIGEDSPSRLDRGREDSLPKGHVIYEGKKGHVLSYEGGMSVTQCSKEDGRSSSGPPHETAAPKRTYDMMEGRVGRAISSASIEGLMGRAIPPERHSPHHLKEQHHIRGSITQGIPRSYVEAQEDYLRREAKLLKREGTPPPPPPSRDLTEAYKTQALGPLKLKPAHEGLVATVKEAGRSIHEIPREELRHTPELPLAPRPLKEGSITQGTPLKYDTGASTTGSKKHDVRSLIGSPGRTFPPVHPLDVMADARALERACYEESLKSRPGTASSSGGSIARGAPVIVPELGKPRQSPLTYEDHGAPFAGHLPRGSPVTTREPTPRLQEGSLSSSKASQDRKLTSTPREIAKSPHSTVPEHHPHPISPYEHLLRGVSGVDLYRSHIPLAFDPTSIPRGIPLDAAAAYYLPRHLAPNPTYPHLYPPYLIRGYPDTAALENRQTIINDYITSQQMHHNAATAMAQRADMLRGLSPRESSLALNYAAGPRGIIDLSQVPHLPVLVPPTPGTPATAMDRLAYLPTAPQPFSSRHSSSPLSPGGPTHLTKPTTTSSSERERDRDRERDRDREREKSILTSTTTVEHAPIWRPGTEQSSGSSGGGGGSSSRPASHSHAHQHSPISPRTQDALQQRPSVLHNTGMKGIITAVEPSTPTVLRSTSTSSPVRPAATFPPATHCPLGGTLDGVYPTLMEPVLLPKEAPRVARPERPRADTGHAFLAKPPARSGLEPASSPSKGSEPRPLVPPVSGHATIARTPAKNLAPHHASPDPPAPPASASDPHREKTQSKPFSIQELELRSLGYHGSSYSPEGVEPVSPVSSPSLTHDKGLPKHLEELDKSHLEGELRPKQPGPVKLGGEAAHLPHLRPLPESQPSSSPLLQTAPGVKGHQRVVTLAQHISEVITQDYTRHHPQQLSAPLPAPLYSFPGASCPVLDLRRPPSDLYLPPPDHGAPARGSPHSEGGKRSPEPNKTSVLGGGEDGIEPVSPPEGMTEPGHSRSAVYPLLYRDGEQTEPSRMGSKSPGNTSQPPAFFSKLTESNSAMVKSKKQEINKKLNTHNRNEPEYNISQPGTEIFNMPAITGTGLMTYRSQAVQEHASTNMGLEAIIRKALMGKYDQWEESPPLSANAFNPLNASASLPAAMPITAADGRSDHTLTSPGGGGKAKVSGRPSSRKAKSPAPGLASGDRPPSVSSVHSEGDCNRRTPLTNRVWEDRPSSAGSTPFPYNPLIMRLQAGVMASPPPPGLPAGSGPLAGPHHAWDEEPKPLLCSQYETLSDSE

## COc1ccc(NS(=O)(=O)c2ccc3c(c2)[C@H]2C=CC[C@H]2[C@@H](c2ccc(C(=O)O)cc2)N3)cc1
[1]
  IC50: 5.81 µM (active)

## CCC(=O)NC(c1ccc(OC)cc1)c1cc(Cl)c2cccnc2c1O (stereo unspecified)
[2]
  EC50: > 160 µM (inactive)

## Cn1nc(-c2ccccn2)nc2c(=O)n(C)c(=O)nc1-2
[3]
  CC50: > 40 µM (active)
[4]
  IC50: 10.2 µM (active)
[5]
  IC50: 4.69 µM (active)
[6]
  IC50: 21 µM (inactive)
[7]
  IC50: 0.079 µM (active)
[8]
  AC50: 0.493 µM (active)
[9]
  AC50: 1.22 µM (active)

## CCCCCCCCCCn1c2c(c(=N)c3c1CCC3)CCC2
Galanin receptor type 3
  IC50: > 1.11 µM (active)
[10]
  AC50: 1.7 µM (active)
